{"source": "ChEMBL document CHEMBL1921768", "about": "“Identification of novel CYP2A6 inhibitors by virtual screening” (Bioorg Med Chem, 2011)", "assay_type_in_all_cases": "ADME, Microsome", "key": {"Cytochrome P450 2A6 [1]": {"biological_target": "T1, Cytochrome P450 2A6 (Homo sapiens, UniProt P11509)", "T1 sequence (P11509 whole entry)": "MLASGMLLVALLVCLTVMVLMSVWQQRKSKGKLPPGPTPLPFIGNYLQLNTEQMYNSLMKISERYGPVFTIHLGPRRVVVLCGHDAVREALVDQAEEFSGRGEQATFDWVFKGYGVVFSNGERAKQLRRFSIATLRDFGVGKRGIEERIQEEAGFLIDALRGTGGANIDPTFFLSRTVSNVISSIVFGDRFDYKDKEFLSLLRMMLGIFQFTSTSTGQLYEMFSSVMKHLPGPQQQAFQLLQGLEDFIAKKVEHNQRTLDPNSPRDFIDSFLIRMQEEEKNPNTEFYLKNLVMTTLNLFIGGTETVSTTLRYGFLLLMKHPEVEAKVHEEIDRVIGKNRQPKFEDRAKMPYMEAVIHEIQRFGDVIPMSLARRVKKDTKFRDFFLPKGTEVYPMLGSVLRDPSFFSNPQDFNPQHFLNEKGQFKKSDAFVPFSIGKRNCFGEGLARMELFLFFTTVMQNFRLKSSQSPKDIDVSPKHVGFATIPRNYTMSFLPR", "experiment": "Inhibition of CYP2A6 in human liver microsomes assessed as inhibition of coumarin 7-hydroxylation after 10 mins by plate reader"}, "Cytochrome P450 2A6 [2]": {"biological_target": "T1, Cytochrome P450 2A6", "experiment": "Irreversible inhibition of CYP2A6 in human liver microsomes assessed as coumarin 7-hydroxylation activity after 1 to 5 mins in presence of NADPH"}, "Cytochrome P450 2A6 [3]": {"biological_target": "T1, Cytochrome P450 2A6", "experiment": "Inhibition of CYP2A6 in human liver microsomes assessed as inhibition of coumarin 7-hydroxylation after 30 mins preincubation by plate reader"}, "CYP2A6": {"biological_target": "T2, CYP2A6 (Homo sapiens, UniProt P11509)", "T2 sequence (P11509 whole entry)": "T1 sequence (P11509 whole entry)", "experiment": "(§1) Irreversible inhibition of CYP2A6 in human liver microsomes assessed as coumarin 7-hydroxylation activity by double reciprocal plot analysis in presence of NADPH", "conditions": "human, liver microsomes, probe coumarin (7-hydroxylation)"}, "Cytochrome P450 2A6 [4]": {"biological_target": "T1, Cytochrome P450 2A6", "experiment": "as §1"}, "Cytochrome P450 2A6 [5]": {"biological_target": "T1, Cytochrome P450 2A6", "experiment": "Irreversible inhibition of CYP2A6 in human liver microsomes assessed as coumarin 7-hydroxylation activity in presence of NADPH", "conditions": "TDE = time-dependent effect"}}}
{"smiles": "N#Cc1ccc(C=O)cc1", "values": [{"measurement": "IC50", "setting": "Cytochrome P450 2A6 [1]", "result": "> 100", "unit": "µM"}]}
{"smiles": "O=Cc1csc2ccccc12", "values": [{"measurement": "inhibition (INH)", "setting": "Cytochrome P450 2A6 [2]", "result": "Dose-dependent effect"}, {"measurement": "IC50", "setting": "Cytochrome P450 2A6 [1]", "result": 1.6, "unit": "µM"}, {"measurement": "IC50", "setting": "Cytochrome P450 2A6 [3]", "result": 0.05, "unit": "µM"}, {"measurement": "kinact", "setting": "CYP2A6", "result": 0.006, "unit": "s⁻¹"}, {"measurement": "Ki", "setting": "Cytochrome P450 2A6 [4]", "result": 29, "unit": "µM"}, {"measurement": "inhibition (INH)", "setting": "Cytochrome P450 2A6 [5]", "result": "tde"}]}
{"smiles": "O=C(O)c1cc2ccccc2s1", "values": [{"measurement": "IC50", "setting": "Cytochrome P450 2A6 [1]", "result": "> 100", "unit": "µM"}]}
{"smiles": "N#CCSc1nnc(N)s1", "values": [{"measurement": "IC50", "setting": "Cytochrome P450 2A6 [1]", "result": "> 100", "unit": "µM"}]}
{"smiles": "NCc1csc2ccccc12", "values": [{"measurement": "IC50", "setting": "Cytochrome P450 2A6 [1]", "result": 1.5, "unit": "µM"}, {"measurement": "IC50", "setting": "Cytochrome P450 2A6 [3]", "result": 0.2, "unit": "µM"}]}
{"smiles": "Brc1ccc2[nH]ccc2c1", "values": [{"measurement": "IC50", "setting": "Cytochrome P450 2A6 [1]", "result": 6.4, "unit": "µM"}]}
{"smiles": "O=Cc1ccc(-c2cccs2)cc1", "values": [{"measurement": "IC50", "setting": "Cytochrome P450 2A6 [1]", "result": "> 100", "unit": "µM"}]}
{"smiles": "NCc1ccc2sccc2c1", "values": [{"measurement": "IC50", "setting": "Cytochrome P450 2A6 [1]", "result": 1.7, "unit": "µM"}, {"measurement": "IC50", "setting": "Cytochrome P450 2A6 [3]", "result": 0.6, "unit": "µM"}]}
{"smiles": "Brc1cccc2[nH]ccc12", "values": [{"measurement": "IC50", "setting": "Cytochrome P450 2A6 [1]", "result": "> 100", "unit": "µM"}]}
{"smiles": "NCc1cc2ccccc2s1", "values": [{"measurement": "IC50", "setting": "Cytochrome P450 2A6 [1]", "result": 0.1, "unit": "µM"}]}
{"smiles": "N#Cc1c(Cl)cccc1OCC(F)(F)F", "values": [{"measurement": "IC50", "setting": "Cytochrome P450 2A6 [1]", "result": "> 100", "unit": "µM"}]}
